Laboratory results taken from patent US11548868B2, “Heterocyclic compounds, compositions comprising heterocyclic compound, and methods of use thereof” (JS INNOPHARM (SHANGHAI) LTD, priority 2017, dated 2023).

How the values were obtained:
[1] = biological target: T1, TDO2 in A172 cancer cells (Homo sapiens, UniProt P48775); assay: TDO2 Cellular Assay (kynurenine production in A172 cancer cells); format: cell-based; conditions: L-Trp 1 mM, 24 hours incubation, kynurenine at 490 nm
T1 construct: endogenous in cells; host or cells: A172 cancer cells
T1 sequence (P48775 whole entry): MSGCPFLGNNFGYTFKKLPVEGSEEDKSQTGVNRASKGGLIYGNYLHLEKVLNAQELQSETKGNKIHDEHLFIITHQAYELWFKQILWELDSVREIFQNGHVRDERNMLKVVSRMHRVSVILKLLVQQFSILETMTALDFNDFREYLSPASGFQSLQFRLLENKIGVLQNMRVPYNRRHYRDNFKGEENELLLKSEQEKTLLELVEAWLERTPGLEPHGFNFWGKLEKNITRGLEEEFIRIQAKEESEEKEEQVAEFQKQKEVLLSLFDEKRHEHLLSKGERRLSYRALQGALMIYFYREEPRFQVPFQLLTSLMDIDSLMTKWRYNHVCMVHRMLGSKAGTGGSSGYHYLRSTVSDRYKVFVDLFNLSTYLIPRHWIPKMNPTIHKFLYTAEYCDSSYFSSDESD
Protocol: A172 cancer cells (3×10^4 per well) in 85 μL DMEM medium containing 10% FBS were seeded in a 96-well plate and incubated at 95% humidity and 5% CO2 at 37° C. for overnight. On the next day, L-Trp solution (10 μL, 1 mM final concentration) and serial dilutions of the test compounds and DMEM medium resulting in a total final volume of 100 μL each well. The test compounds were dissolved in DMSO and successively diluted with pH7.5 butter (with final DMSO concentration of 0.25%) resulting in final concentrations of the test compounds ranging from 0 to 25 μM (0, 2.5, 7.5, 25, 75, 250, 750, 2500, 7500, & 25000 nM). After 24 hours of incubation, 70 uL of the supernatant per well was transferred to a new 96 well plate. 8 μL of trichloroacetic acid (6.1 N) was mixed into each well and incubated at 50° C. for 30 min to hydrolyze N-formylkynurenine to kynurenine. The reaction mixture was then centrifuged for 10 min at 2500 RPM to remove sediments. 50 μL of the supernatant per well was transferred to another 96 well plate and mixed with 50 μL of 2% (w/v) p-dimethylaminobenzaldehyde in acetic acid. The yellow color derived from kynurenine was measured at 490 nm using a microplate reader. Percent inhibition of the test compounds was determined by measuring the decrease in kynurenine as compared to the control of DMSO vehicle, which was calculated by formula of (WC−WT)/WC, where WC is the mean absorbance of the control well minus blank well; WT is the mean absorbance of the test well minus the blank well. Data was analyzed by GraphPad Prism 5 and the IC50 values were obtained by non-linear regression.
(§1) The IC50 values of for Compounds disclosed are listed in Table 2, A′: ≤0.5 μM; B′: >0.5 μM and ≤1 μM; C′: >1.0 μM and ≤5 uM; and D′: >5 μM.

[2] = biological target: T2, IDO1 in Hela cancer cells (Homo sapiens, UniProt P14902); assay: IDO1 Cellular Assay (kynurenine production in IFN-γ stimulated Hela cancer cells); format: cell-based; conditions: human IFN-γ 50 ng/mL, 48 hours incubation, kynurenine at 490 nm
T2 construct: endogenous in cells; host or cells: Hela cancer cells stimulated with human IFN-γ
T2 sequence (P14902 whole entry): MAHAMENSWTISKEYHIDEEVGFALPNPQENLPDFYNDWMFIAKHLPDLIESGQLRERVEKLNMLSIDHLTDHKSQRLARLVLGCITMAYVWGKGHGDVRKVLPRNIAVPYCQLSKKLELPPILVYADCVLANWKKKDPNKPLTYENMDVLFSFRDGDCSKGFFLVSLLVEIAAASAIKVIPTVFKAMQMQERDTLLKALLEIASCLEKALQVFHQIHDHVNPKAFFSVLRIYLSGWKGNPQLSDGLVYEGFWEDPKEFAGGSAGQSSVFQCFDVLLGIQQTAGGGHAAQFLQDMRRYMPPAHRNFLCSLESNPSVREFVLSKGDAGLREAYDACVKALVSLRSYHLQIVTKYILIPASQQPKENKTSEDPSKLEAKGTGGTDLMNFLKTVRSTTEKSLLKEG
Protocol: Hela cancer cells (5×10^3 per well) with 85 μL DMEM medium containing 10% FBS were seeded in a 96-well plate and incubated at 95% humidity and 5% CO2 at 37° C. for 24 hours. human IFN-γ (10 μL, 50 ng/mL final concentration) and 5 μL serial dilutions of the test compounds were added into each well. The test compounds were dissolved in DMSO, and successively diluted with pH7.5 buffer (with final DMSO concentration of 0.25%) resulting in final concentrations of the test compounds ranging from 0 to 25 μM (0, 2.5, 7.5, 25, 75, 250, 750, 2500, 7500, & 25000 nM). After 48 hours of incubation, 70 uL of the supernatant per well was transferred to a new 96 well plate. Trichloroacetic acid (6.1 N, 8 μL) was mixed into each well and incubated at 50° C. for 30 min to hydrolyze N-formylkynurenine produced by IDO to kynurenine. The reaction mixture was then centrifuged for 10 min at 2500 RPM to remove sediments. 50 μL of the supernatant per well was transferred to another 96 well plate and mixed with 50 uL of 2% (w/v) p-dimethylaminobenzaldehyde in acetic acid. The yellow color derived from kynurenine was measured at 490 nm using a microplate reader. Percent inhibition of the test compounds was determined by measuring the decrease in kynurenine as compared to the control of DMSO vehicle, which was calculated by formula of (WC-WT)/WC, where WC is the mean absorbance of the control well minus blank well; WT is the mean absorbance of the test well minus the blank well. Data was analyzed by GraphPad Prism 5 and the IC50 values were obtained by non-linear regression.
as §1

SMILES	IC50 [1]	IC50 [2]
CC1(C)[C@H]2CN(c3c(C(F)(F)F)ccc4cncn34)C[C@H]2CN1S(C)(=O)=O (racemic) [Example 48, Racemic-5-((3aR,6aS)-4,4-dimethyl-5-(methylsulfonyl)hexahydropyrrolo[3,4-c]pyrrol-2(1H)-yl)-6-(trifluoromethyl)imidazo[1,5-a]pyridine]	> 5 µM	> 5 µM
CC1(C)[C@H]2CN(c3cc(C(F)(F)F)cc4cncn34)C[C@H]2CN1S(C)(=O)=O (racemic) [Example 50, Racemic-5-((3aR,6aS)-4,4-dimethyl-5-(methylsulfonyl)hexahydropyrrolo[3,4-c]pyrrol-2(1H)-yl)-7-(trifluoromethyl)imidazo[1,5-a]pyridine]	> 5 µM	> 5 µM
CC(=O)N1C[C@@H]2CN(c3cc(C(F)(F)F)cc4cncn34)C[C@@H]2C1(C)C (racemic) [Example 51, Racemic-1-((3aS,6aR)-1,1-dimethyl-5-(7-(trifluoromethyl)imidazo[1,5-a]pyridin-5-yl)hexahydropyrrolo[3,4-c]pyrrol-2(1H)-yl)ethanone]	> 5 µM	> 5 µM
CC1(C)[C@H]2CN(c3c(C4CC4)ccc4cncn34)C[C@H]2CN1S(C)(=O)=O (racemic) [Example 55, Racemic-6-cyclopropyl-5-((3aR,6aS)-4,4-dimethyl-5-(methylsulfonyl)hexahydropyrrolo[3,4-c]pyrrol-2(1H)-yl)imidazo[1,5-a]pyridine]	> 5 µM	> 5 µM
CC(=O)N1C[C@@H]2CN(c3c(C4CC4)ccc4cncn34)C[C@@H]2C1(C)C (racemic) [Example 56, Racemic-1-((3aS,6aR)-5-(6-cyclopropylimidazo[1,5-a]pyridin-5-yl)-1,1-dimethylhexahydropyrrolo[3,4-c]pyrrol-2(1H)-yl)ethanone]	> 5 µM	> 5 µM
O=C(N[C@@H]1[C@H]2C=C(c3cc(Cl)cc4[nH]ncc34)C[C@H]21)C1CC1 (racemic) [Example 183, Racemic-N-((1S,5R,6S)-3-(6-chloro-1H-indazol-4-yl)bicyclo[3.1.0]hex-2-en-6-yl)cyclopropanecarboxamide]	1 to 5 µM	> 5 µM
CS(=O)(=O)N[C@H]1C[C@@H]2C[C@@](O)(c3cc(Cl)cc4[nH]ncc34)C[C@@H]2C1 [Example 3, N-((2r,3aR,5r,6aS)-5-(6-chloro-1H-indazol-4-yl)-5-hydroxyoctahydropentalen-2-yl)methanesulfonamide]	≤ 0.5 µM	> 5 µM
CC(=O)N1C[C@@H]2C[C@@](O)(c3cc(Cl)cn4cncc34)C[C@@H]2C1 [Example 6, 1-((3aR,5r,6aS)-5-(6-chloroimidazo[1,5-a]pyridin-8-yl)-5-hydroxyhexahydrocyclopenta[c]pyrrol-2(1H)-yl)ethanone]	0.5 to 1 µM	> 5 µM
CC(=O)N1C[C@@H]2C[C@@](O)(c3c(Cl)ccc4cncn34)C[C@@H]2C1 [Example 7, 1-((3aR,5r,6aS)-5-(6-chloroimidazo[1,5-a]pyridin-5-yl)-5-hydroxyhexahydrocyclopenta[c]pyrrol-2(1H)-yl)ethanone]	> 5 µM	> 5 µM
CC(=O)N1C[C@@H]2C[C@@](O)(c3cc(Cl)cc4cn[nH]c34)C[C@@H]2C1 [Example 8, 1-((3aR,5r,6aS)-5-(5-chloro-1H-indazol-7-yl)-5-hydroxyhexahydrocyclopenta[c]pyrrol-2(1H)-yl)ethanone]	> 5 µM	> 5 µM
CNS(=O)(=O)N[C@H]1[C@@H]2C[C@@](O)(c3cc(Cl)cc4[nH]ncc34)C[C@@H]21 [Example 9, N′-methyl-N-((1R,3r,5S,6r)-3-(6-chloro-1H-indazol-4-yl)-3-hydroxybicyclo[3.1.0]hexan-6-yl)sulfuric diamide]	≤ 0.5 µM	≤ 0.5 µM
CS(=O)(=O)N[C@H]1[C@@H]2C[C@@](O)(c3cc(C(F)(F)F)cc4[nH]ncc34)C[C@@H]21 [Example 10, N-((1R,3r,5S,6r)-3-hydroxy-3-(6-(trifluoromethyl)-1H-indazol-4-yl)bicyclo[3.1.0]hexan-6-yl)methanesulfonamide]	≤ 0.5 µM	1 to 5 µM
OC1(c2cc(Cl)cc3[nH]ncc23)CC1 [Example 11, 1-(6-chloro-1H-indazol-4-yl)cyclopropanol]	≤ 0.5 µM	> 5 µM
O[C@@H]1C[C@@H]2C[C@@](O)(c3cc(Cl)cc4[nH]ncc34)C[C@@H]2C1 [Example 32, (2r,3aR,5s,6aS)-2-(6-chloro-1H-indazol-4-yl)octahydropentalene-2,5-diol]	≤ 0.5 µM	1 to 5 µM
O=S(=O)(c1ccccc1)N1C[C@@H]2C[C@@](O)(c3cc(Cl)cc4[nH]ncc34)C[C@@H]2C1 [Example 35, (3aR,5r,6aS)-5-(6-chloro-1H-indazol-4-yl)-2-(phenylsulfonyl)octahydrocyclopenta[c]pyrrol-5-ol]	≤ 0.5 µM	> 5 µM
O=C(c1ccccc1)N1C[C@@H]2C[C@@](O)(c3cc(Cl)cc4[nH]ncc34)C[C@@H]2C1 [Example 36, ((3aR,5r,6aS)-5-(6-chloro-1H-indazol-4-yl)-5-hydroxyhexahydrocyclopenta[c]pyrrol-2(1H)-yl)(phenyl)methanone]	≤ 0.5 µM	> 5 µM
O=C(C1CC1)N1C[C@@H]2C[C@@](O)(c3cc(Cl)cc4[nH]ncc34)C[C@@H]2C1 [Example 38, ((3aR,5r,6aS)-5-(6-chloro-1H-indazol-4-yl)-5-hydroxyhexahydrocyclopenta[c]pyrrol-2(1H)-yl)(cyclopropyl)methanone]	≤ 0.5 µM	> 5 µM
N#Cc1ccc(S(=O)(=O)N2C[C@@H]3C[C@@](O)(c4cc(Cl)cc5[nH]ncc45)C[C@@H]3C2)cc1 [Example 39, 4-(((3aR,5r,6aS)-5-(6-chloro-1H-indazol-4-yl)-5-hydroxyhexahydrocyclopenta[c]pyrrol-2(1H)-yl)sulfonyl)benzonitrile]	≤ 0.5 µM	> 5 µM
O=C(c1ccncc1)N1C[C@@H]2C[C@@](O)(c3cc(Cl)cc4[nH]ncc34)C[C@@H]2C1 [Example 40, ((3aR,5r,6aS)-5-(6-chloro-1H-indazol-4-yl)-5-hydroxyhexahydrocyclopenta[c]pyrrol-2(1H)-yl)(pyridin-4-yl)methanone]	≤ 0.5 µM	> 5 µM
N#Cc1ccc(C(=O)N2C[C@@H]3C[C@@](O)(c4cc(Cl)cc5[nH]ncc45)C[C@@H]3C2)cc1 [Example 42, 4-((3aR,5r,6aS)-5-(6-chloro-1H-indazol-4-yl)-5-hydroxyoctahydrocyclopenta[c]pyrrole-2-carbonyl)benzonitrile]	≤ 0.5 µM	1 to 5 µM
CS(=O)(=O)N1C[C@@H]2C[C@@](O)(c3cc(Cl)cn4cncc34)C[C@@H]2C1 [Example 52, (3aR,5r,6aS)-5-(6-chloroimidazo[1,5-a]pyridin-8-yl)-2-(methylsulfonyl)octahydrocyclopenta[c]pyrrol-5-ol]	≤ 0.5 µM	1 to 5 µM
CS(=O)(=O)N1C[C@@H]2C[C@@](O)(c3c(Cl)ccc4cncn34)C[C@@H]2C1 [Example 53, (3aR,5r,6aS)-5-(6-chloroimidazo[1,5-a]pyridin-5-yl)-2-(methylsulfonyl)octahydrocyclopenta[c]pyrrol-5-ol]	1 to 5 µM	> 5 µM
CS(=O)(=O)N[C@H]1[C@@H]2C[C@@](O)(c3cc(Cl)cc4[nH]ncc34)C[C@@H]21 [Example 63, N-((1R,3r,5S,6r)-3-(6-chloro-1H-indazol-4-yl)-3-hydroxybicyclo[3.1.0]hexan-6-yl)methanesulfonamide]	≤ 0.5 µM	0.5 to 1 µM
